Measurements as given in patent US20240118281A1, “ANTICANCER COMPOUNDS AND USES THEREOF” (University of Florida Research Foundation, Incorporated, priority 2021, published 2024).

Legend:
[1] = test system: MDA-MB-468 cells; assay: Thymidine incorporation (DNA synthesis) assay; assay type: cell-based; settings: 24 h, FIG. 9A
Description: Thymidine incorporation assays were performed as described previously (Corsino P, et al. J Biol Chem 2009; 284: 29945-29955).

[2] = target: T1, AGR2 (Homo sapiens, UniProt O95994); assay: AGR2 dimer formation in stable cell lines, non-reducing immunoblot; assay type: cell-based; parameters: expressed in transfected cells; settings: MDA-MB-468 stable cell lines, 5 μM, 24 h, FIG. 2F
T1 sequence (O95994 21-175): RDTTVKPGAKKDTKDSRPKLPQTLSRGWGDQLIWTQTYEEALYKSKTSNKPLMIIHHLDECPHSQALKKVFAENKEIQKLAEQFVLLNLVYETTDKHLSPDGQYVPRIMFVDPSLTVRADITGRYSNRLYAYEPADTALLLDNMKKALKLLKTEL
Description: (§1) To assess protein disulfide bond-mediated oligomerization, cells were treated with DDAs for 24 h in 10% FBS-DMEM. Cells were subsequently scraped directly into the media and pelleted by centrifugation. Cells were extracted directly into boiling 2×-SDS-Sample Buffer containing 100 mM NEM and boiled for 10 min. Samples were sonicated, followed by centrifugation for 20 min at room temperature. Samples were subsequently analyzed by SDS-PAGE and immunoblot.

[3] = test system: DR5; assay: Disulfide bond-mediated oligomerization and levels, non-reducing immunoblot; assay type: cell-based
Excerpt: The BT20, BT474, BT549, MCF7, MDA-MB-231, MDA-MB-436, MDA-MB-468, HCC1143, HCC1500, HCC1569, HCC1937, HCC1954, Hs578t, and T47D cells lines were purchased from American Type Culture Collection (ATCC) (Manassas, VA). The HCI-001 cell line was derived from an ER-/PR-/HER2- patient-derived xenograft originally isolated from a patient as described previously (DeRose Y S, et al. Nat Med 2011; 17: 1514-1520). The HCI-001/LVM2 model was derived from the HCI-001 cell line by performing two rounds of selection for liver metastasis, as described previously (Wang M, et al. Cell Death Discovery 2019; 5: 153). Cell lines were grown in Dulbecco's Modified Eagle's Medium (GE Healthcare Life Sciences, Logan, UT) containing 10% fetal bovine serum (10% FBS—DMEM) in a humidified incubator with 5% CO2 at 37° C. Cell lysates were prepared as described previously (Law B K, et al. Mol Cell Biol. 2002; 22: 8184-8198). Immunoblot analysis was performed utilizing the following antibodies purchased from Cell Signaling Technology (Beverly, MA) [Akt, #4691; P-Akt[T308], #13038; ATF4, #11815; CHOP, #2895; Cleaved Caspase 8, #9496; DR4, #42533; DR5, #8074; EGFR, #4267; GRP78, #3177; HER3, #4754; PARP, #9532; PDIA1, #3501; XBP1s, #12782], from Santa Cruz Biotechnology (Santa Cruz, CA) [Actin, sc-47778; AGR2/3, sc-376653; AGR3, sc-390940; ERO1-a, sc-100805; and ERp44, sc-393687], or from Rockland Immunochemicals, Inc. (Limerick, PA), Streptavidin-Alkaline Phosphatase conjugated (SA-AP), S000-05.
as §1

[4] = target: T2, ERp44 (Homo sapiens, UniProt Q9BS26); assay: In vitro binding assay with recombinant purified ERp44; settings: pre-incubation with a molar excess, FIG. 3D
T2 sequence (Q9BS26 30-406): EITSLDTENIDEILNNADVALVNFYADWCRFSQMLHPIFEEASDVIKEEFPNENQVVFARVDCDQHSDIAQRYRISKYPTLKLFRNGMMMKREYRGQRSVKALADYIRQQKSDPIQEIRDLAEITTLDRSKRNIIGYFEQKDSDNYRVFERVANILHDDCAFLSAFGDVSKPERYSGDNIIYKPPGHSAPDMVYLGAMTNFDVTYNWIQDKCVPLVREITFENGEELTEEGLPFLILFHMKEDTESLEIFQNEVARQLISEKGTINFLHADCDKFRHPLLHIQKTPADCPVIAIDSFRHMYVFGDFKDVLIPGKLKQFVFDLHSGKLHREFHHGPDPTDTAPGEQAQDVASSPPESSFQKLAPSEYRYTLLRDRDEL
Description: Purified His6-AGR2 or His6-AGR2 C81S, as prepared above, or His6-AGR2 (PRO-580) or His6-AGR3 (PRO-242) obtained from ProSpec (New Brunswick NJ) were incubated with or without varying concentrations of the unlabeled DDA competitors, tcyDTDO or dMtcyDTDO, and 30 μM Biotin-GlyPyrDTDO or Biotin-PyrDTDO in buffer (20 mM HEPES (pH 7.4), 1 mM EDTA, 1 mM EGTA, 5% Glycerol, 1 nM Microcystin, 1 mM Na3VO4, and 40 mM Na2H2P2O7) containing 1% Triton-X 100 for 30 min at 37° C. […] Therefore, the two probes were used interchangeably. Reactions were stopped by boiling the samples in 2×-SDS-Sample Buffer containing 100 mM NEM for 10 min. Biotin-DDA labeling of protein was verified by blotting with Streptavidin-Alkaline Phosphatase (Rockland Immunochemicals, Inc., Limerick, PA). ERp44 (PRO-547) and PDIA1 (ENZ-262) were obtained from ProSpec and used in experiments examining the binding of these proteins to Biotin-PyrDTDO.

[5] = MDA-MB-468 cells, 24 h, compared with tcyDTDO, FIG. 1E left

SMILES: CO[C@H]1C[C@@H]2CS(=O)(=O)SC[C@H]2C[C@@H]1OC [dMtcyDTDO, dimethoxy-tcyDTDO]
- Potency in DNA synthesis assay relative to tcyDTDO [1]: two-fold greater potency than tcyDTDO
- AGR2 dimer formation in cells with enforced AGR2 expression [2]: blocked dimer formation by wild type AGR2
- Levels and oligomerization of DR5, densitometry ([3]; 0, 1.25, 2.5, 5 uM, FIG. 1F): increases the levels of both oligomeric and monomeric forms of DR5
- Concentration at which oligomerization of DR5 was observed ([3]; MDA-MB-468 cells, 24 h, FIG. 1E right): 1.25 µM
- DR4/5 oligomerization at the same concentration (DR5) [3, 5]: more DR4/5 oligomerization
- DR5 levels at the same concentration [3, 5]: higher DR5 levels
- Block of Biotin-PyrDTDO biotinylation of ERp44 [4]: biotinylation was blocked
